In the NIST ThermoML archive (doi:10.1016/j.fluid.2011.04.022):
Numbers after ± are expanded uncertainties.

Details: Liquid, Vibrating tube method

FC(F)CC(F)(F)F [1,1,1,3,3-pentafluoropropane]
mass density [kg/m3]
Details | 293.84 K | 303.46 K | 313.18 K | 323 K | 332.83 K | 343.01 K | 353 K | 362.91 K | 372.94 K
1000 kPa | 1352.16 ± 1.4 | 1326.31 ± 1.5 | 1299.2 ± 1.5 | 1270.55 ± 1.6 | 1240.26 ± 1.7 | 1206.92 ± 1.9 | – | – | –
3000 kPa | 1357.97 ± 1.4 | 1332.8 ± 1.4 | 1306.56 ± 1.5 | 1278.98 ± 1.6 | 1250.02 ± 1.7 | 1218.46 ± 1.8 | 1185.75 ± 2 | 1150.79 ± 2.2 | 1112.26 ± 2.5
5000 kPa | 1363.53 ± 1.4 | 1338.98 ± 1.4 | 1313.51 ± 1.4 | 1286.86 ± 1.5 | 1259.06 ± 1.6 | 1228.97 ± 1.7 | 1198.11 ± 1.8 | 1165.55 ± 1.9 | 1130.36 ± 2.2
10000 kPa | 1376.42 ± 1.4 | 1353.32 ± 1.4 | 1329.44 ± 1.4 | 1304.71 ± 1.5 | 1279.16 ± 1.5 | 1251.88 ± 1.6 | 1224.38 ± 1.7 | 1195.94 ± 1.8 | 1165.97 ± 1.9
15000 kPa | 1388.34 ± 1.4 | 1366.31 ± 1.4 | 1343.73 ± 1.4 | 1320.47 ± 1.4 | 1296.63 ± 1.5 | 1271.37 ± 1.5 | 1246.17 ± 1.6 | 1220.45 ± 1.6 | 1193.67 ± 1.7
20000 kPa | 1399.29 ± 1.4 | 1378.22 ± 1.4 | 1356.77 ± 1.4 | 1334.65 ± 1.4 | 1312.15 ± 1.4 | 1288.45 ± 1.5 | 1265.01 ± 1.5 | 1241.23 ± 1.6 | 1216.58 ± 1.6
25000 kPa | 1409.54 ± 1.4 | 1389.33 ± 1.4 | 1368.61 ± 1.4 | 1347.58 ± 1.4 | 1326.17 ± 1.4 | 1303.77 ± 1.4 | 1281.67 ± 1.5 | 1259.38 ± 1.5 | 1236.4 ± 1.5
30000 kPa | 1419.03 ± 1.4 | 1399.65 ± 1.4 | 1379.73 ± 1.4 | 1359.46 ± 1.4 | 1339.02 ± 1.4 | 1317.65 ± 1.4 | 1296.64 ± 1.5 | 1275.54 ± 1.5 | 1253.82 ± 1.5
35000 kPa | 1428.09 ± 1.5 | 1409.33 ± 1.4 | 1390.16 ± 1.4 | 1370.64 ± 1.4 | 1350.93 ± 1.4 | 1330.42 ± 1.4 | 1310.33 ± 1.5 | 1290.2 ± 1.5 | 1269.55 ± 1.5
40000 kPa | 1436.79 ± 1.5 | 1418.45 ± 1.5 | 1399.89 ± 1.5 | 1381.03 ± 1.5 | 1362.03 ± 1.5 | 1342.2 ± 1.5 | 1322.95 ± 1.5 | 1303.67 ± 1.5 | 1283.89 ± 1.5
50000 kPa | 1452.73 ± 1.6 | 1435.43 ± 1.6 | 1417.82 ± 1.6 | 1400.08 ± 1.6 | 1382.12 ± 1.5 | 1363.61 ± 1.5 | 1345.62 ± 1.5 | 1327.67 ± 1.5 | 1309.28 ± 1.5
60000 kPa | 1467.39 ± 1.7 | 1450.88 ± 1.7 | 1434.07 ± 1.7 | 1417.12 ± 1.6 | 1400.21 ± 1.6 | 1382.71 ± 1.6 | 1365.63 ± 1.6 | 1348.77 ± 1.6 | 1331.43 ± 1.6
70000 kPa | 1480.99 ± 1.9 | 1465.1 ± 1.8 | 1449.07 ± 1.8 | 1432.87 ± 1.8 | 1416.64 ± 1.8 | 1399.92 ± 1.7 | 1383.75 ± 1.7 | 1367.68 ± 1.7 | 1351.23 ± 1.6
